Laboratory results: patent US20160206606A1, “TOPICAL COMPOSITIONS COMPRISING A THIAZOLIDINEDIONE” (Topokine Therapeutics, Inc., priority 2014, published 2016)
Where a name gives a salt, the structure may show the parent alone. Read-outs that look alike come from different tables or passages of the source.

What was measured:
[1] = cited from earlier work; for solubility in ethanol: background statement, temperature not stated
[2] = Solubility by serial addition of solvent to a known mass of the TZD until full dissolution; type: physicochemical
Description: The solubility of rosiglitazone maleate and pioglitazone hydrochloride in various solvents was tested by a standard method, i.e., serial addition of solvent to a known mass of the TZD compound, until full dissolution was observed. Additional solubility results were obtained from the literature. […] This phenomenon occurred in formulations comprising water, as well as formulations lacking water. […] Next, the solubility of troglitazone in various solvents was tested by a standard method, i.e., serial addition of solvent to a known mass of troglitazone, until full dissolution was observed. Additional solubility results were obtained from the literature.

[3] = solvent: 70% ethanol, 27% PG, 3% oleic acid
[4] = solvent: 70% ethanol, 30% propylene glycol (PG)

| Solubility at 25° C. ([2]; solvent: 65% ethanol, 25% PG, 7% water, 3% oleic acid) [mg/g] | Solubility at 25° C. [2, 3] [mg/g] | increase of solubility in the vehicle on addition of oleic acid ([2]; about 3% w/w oleic acid added to ethanol-based vehicle) | increase of solubility in the vehicle on addition of oleic acid ([2]; about 3% w/w oleic acid added to isopropanol-based vehicle) | Solubility at 25° C. ([2]; solvent: 63% ethanol, 24% PG, 10% water, 3% oleic acid) [mg/g] | Solubility at 25° C. [2, 4] [mg/g] | Solubility at 25° C. ([2]; solvent: 70% isopropyl alcohol, 27% PG, 3% oleic acid) [mg/g] | Solubility at 25° C. ([2]; solvent: 70% isopropyl alcohol, 30% PG) [mg/g] | Structure (SMILES) | solubility in ethanol [1] | Solubility at 25° C. ([1]; solvent: Ethanol) | Solubility at 25° C. ([1]; solvent: Water) |
| --- | --- | --- | --- | --- | --- | --- | --- | --- | --- | --- | --- |
| ~9 | ~9 | – | – | – | – | – | – | CCc1ccc(CCOc2ccc(CC3SC(=O)NC3=O)cc2)nc1 (stereo not drawn) [pioglitazone hydrochloride] | ~4000 µg/mL | 4 mg/mL | 0.05 mg/mL |
| – | ~10 | over 75 fold | about 3 fold | ~10 | 0.13 | 1.2 | 0.4 | CN(CCOc1ccc(CC2SC(=O)NC2=O)cc1)c1ccccn1 (stereo not drawn) [rosiglitazone maleate] | about 0.25 mg/mL | 0.25 mg/mL | – |
| – | 0.6 | – | – | – | 0.3 | – | – | Cc1c(C)c2c(c(C)c1O)CCC(C)(COc1ccc(CC3SC(=O)NC3=O)cc1)O2 (stereo not drawn) [troglitazone] | – | 0.3 mg/mL^b | 0.02 mg/mL^a |
